Source: patent publication US20080287299A1, “Use of Imidazole and/or Triazole Derivatives for Combating Plant Pests; as Well as Method for Controlling Diseases/Insects/Mites/Nematodes and Weeds, Particularly Foliar and/or Soil Diseases” (priority 2005, published 2008)

What was measured:
Phakopsora pachyrhizi [1] = assay: Greenhouse soybean rust test, plants at V6 stage, evaluated every 5 days; format: in vivo
Description: Recent tests carried out in greenhouses the laboratory of FMC Quimica do Brasil Ltda. in Uberaba, MG, Brazil, show the highly fungicidal effect of said specific imidazole and/or triazole derivatives in combating diseases of plants, particularly against the attack by the fungus Phakopsora pachyrhizi on soybeans, as described hereinafter. […]
Equipment: a manual sprayer commonly used in agriculture with 2-liter capacity.
Dosages: 50 to 500 grams per hectare of the active compound Fluconazole per liter diluted in water.
Evaluations of the Effectiveness of the Product: The evaluations were made every 5 days after application of the product, in a total of 4 evaluations. As an evaluation parameter one utilized the severity of the disease (percentage of foliar area attacked by rust) according to the diagrammatic scale of the EMBRAPA (FIG. 1). […]
Dosages: 50 to 500 grams per hectare of the active compound Itraconazole per liter diluted in water.

Phakopsora pachyrhizi [2] = assay: Field evaluation of fungicides for control of soybean asian rust, Rondonópolis, MT, Brazil; format: in vivo
Procedure: Results of the 2nd step with defined crops (Evaluation of efficiency of fungicides for controlling soybean asian rust caused by Phakopsora pachyrhizi in the State of Mato Grosso, Brazil)
Several fungicides were evaluated in the control of soybean asian rust (Table 1A). The experiment was effected in Rondonópolis, MT, Brazil, harvest 2005/06, in a commercial area with soybean cultivar. The experiment consisted of 13 treatments (Table 1A).
The experimental outlining was random, in blocks, with 13 treatments and 4 repetitions. Each plot consisted of 6 lines of 6 m, spaced 0.45 m.
The culture traits were suited to the good development of the soybean crop, uniformly applied in the whole experiment.
The spraying was effected in stadiums R3 and R5.1, with coast CO2 sprayer provided with a JA-02-type beak, under a pressure of 0.31 MPa (45 psi), using 110 L of broth per ha. At the first application, the plants were presenting the beginning of rust symptoms at their foliar areas.
The rust was evaluated by analysing the percentage of foliar area affected by the disease, according to Godoy et al., in the plants of the three central lines. Evaluationa related to soybean injury and severity were effected in 14 and 21 days after the first application (DDA), by means of visual observation of the leaves of the plot plants.

[3] = Dose 1000 P.C. mL ha^−1, 14 days after the first application
[4] = Dose 1000 P.C. mL ha^−1, 21 days after the first application

`CC(=O)N1CCN(c2ccc(OC[C@H]3CO[C@](Cn4ccnc4)(c4ccc(Cl)cc4Cl)O3)cc2)CC1` (relative stereo) [Ketoconazole, cis-1-acetyl-4-(4-((2-(2,4-dichloro-phenyl)-2-(1H-imidazol-1-ylmethyl)-1,3-dioxolan-4-yl)methoxyl)phenyl)piperazine] was tested, and the “SEVERITY OF RUST (% IFA) 5 DAT” value (Phakopsora pachyrhizi [1]; 100 g ac/ha, soybeans) was 27 % IFA, the “SEVERITY OF RUST (% IFA) 10 DAT” value (Phakopsora pachyrhizi [1]; 100 g ac/ha, soybeans) was 20 % IFA and the “SEVERITY OF RUST (% IFA) 20 DAT” value (Phakopsora pachyrhizi [1]; 100 g ac/ha, soybeans) was 45 % IFA. The “SEVERITY OF RUST (% IFA) 5 DAT” value (Phakopsora pachyrhizi [1]; 200 g ac/ha, soybeans) was 10 % IFA, the “SEVERITY OF RUST (% IFA) 10 DAT” value (Phakopsora pachyrhizi [1]; 200 g ac/ha, soybeans) was 8 % IFA and the “SEVERITY OF RUST (% IFA) 20 DAT” value (Phakopsora pachyrhizi [1]; 200 g ac/ha, soybeans) was 18 % IFA. For the same compound, the “SEVERITY OF RUST (% IFA) 5 DAT” value (Phakopsora pachyrhizi [1]; 300 g ac/ha, soybeans) was 10 % IFA, the “SEVERITY OF RUST (% IFA) 10 DAT” value (Phakopsora pachyrhizi [1]; 300 g ac/ha, soybeans) was 6 % IFA and the “SEVERITY OF RUST (% IFA) 20 DAT” value (Phakopsora pachyrhizi [1]; 300 g ac/ha, soybeans) was 16 % IFA. For the same compound, the “SEVERITY OF RUST (% IFA) 5 DAT” value (Phakopsora pachyrhizi [1]; 400 g ac/ha, soybeans) was 11 % IFA, the “SEVERITY OF RUST (% IFA) 10 DAT” value (Phakopsora pachyrhizi [1]; 400 g ac/ha, soybeans) was 7 % IFA and the “SEVERITY OF RUST (% IFA) 20 DAT” value (Phakopsora pachyrhizi [1]; 400 g ac/ha, soybeans) was 15 % IFA. For the same compound, the “SEVERITY OF RUST (% IFA) 5 DAT” value (Phakopsora pachyrhizi [1]; 500 g ac/ha, soybeans) was 8 % IFA, the “SEVERITY OF RUST (% IFA) 10 DAT” value (Phakopsora pachyrhizi [1]; 500 g ac/ha, soybeans) was 4 % IFA and the “SEVERITY OF RUST (% IFA) 20 DAT” value (Phakopsora pachyrhizi [1]; 500 g ac/ha, soybeans) was 11 % IFA. The “effectiveness for controlling soybean rust” value (Phakopsora pachyrhizi [1]; from the dose of 200 grams of active ingredients per hectare) was “imparts effectiveness for controlling soybean rust”, the “Severity - affected foliar area (%) 14 DAA” value (from here on “Severity … (%) 14 DAA”) (Phakopsora pachyrhizi [2]; [3]) was 2.0% and the “Severity - affected foliar area (%) 21 DAA” value (from here on “Severity … (%) 21 DAA”) (Phakopsora pachyrhizi [2]; [4]) was 7.0%.
With `OC(Cn1cncn1)(Cn1cncn1)c1ccc(F)cc1F` [Fluconazole, alpha-(2,4-difluorophenyl)-alpha-(1H-1,2,4-trizole-1-ylmethyl)-1H-1,2,4-trizole-1-ethanol] the “SEVERITY OF RUST (% IFA) 5 DAT” value (Phakopsora pachyrhizi [1]; Table 2: 50 g ac/ha, soybean) was 5 % IFA, the “SEVERITY OF RUST (% IFA) 10 DAT” value (Phakopsora pachyrhizi [1]; Table 2: 50 g ac/ha, soybean) was 10 % IFA and the “SEVERITY OF RUST (% IFA) 15 DAT” value (Phakopsora pachyrhizi [1]; Table 2: 50 g ac/ha, soybean) was 12 % IFA. For the same compound, the “SEVERITY OF RUST (% IFA) 20 DAT” value (Phakopsora pachyrhizi [1]; Table 2: 50 g ac/ha, soybean) was 12 % IFA, the “SEVERITY OF RUST (% IFA) 5 DAT” value (Phakopsora pachyrhizi [1]; Table 2: 100 g ac/ha, soybean) was 5 % IFA and the “SEVERITY OF RUST (% IFA) 10 DAT” value (Phakopsora pachyrhizi [1]; Table 2: 100 g ac/ha, soybean) was 7 % IFA. The “SEVERITY OF RUST (% IFA) 15 DAT” value (Phakopsora pachyrhizi [1]; Table 2: 100 g ac/ha, soybean) was 10 % IFA, the “SEVERITY OF RUST (% IFA) 20 DAT” value (Phakopsora pachyrhizi [1]; Table 2: 100 g ac/ha, soybean) was 11 % IFA and the “SEVERITY OF RUST (% IFA) 5 DAT” value (Phakopsora pachyrhizi [1]; Table 2: 150 g ac/ha, soybean) was 4 % IFA. The “SEVERITY OF RUST (% IFA) 10 DAT” value (Phakopsora pachyrhizi [1]; Table 2: 150 g ac/ha, soybean) was 6 % IFA, the “SEVERITY OF RUST (% IFA) 15 DAT” value (Phakopsora pachyrhizi [1]; Table 2: 150 g ac/ha, soybean) was 9 % IFA and the “SEVERITY OF RUST (% IFA) 20 DAT” value (Phakopsora pachyrhizi [1]; Table 2: 150 g ac/ha, soybean) was 10 % IFA. The “SEVERITY OF RUST (% IFA) 5 DAT” value (Phakopsora pachyrhizi [1]; Table 2: 250 g ac/ha, soybean) was 3 % IFA, the “SEVERITY OF RUST (% IFA) 10 DAT” value (Phakopsora pachyrhizi [1]; Table 2: 250 g ac/ha, soybean) was 7 % IFA and the “SEVERITY OF RUST (% IFA) 15 DAT” value (Phakopsora pachyrhizi [1]; Table 2: 250 g ac/ha, soybean) was 11 % IFA. For the same compound, the “SEVERITY OF RUST (% IFA) 20 DAT” value (Phakopsora pachyrhizi [1]; Table 2: 250 g ac/ha, soybean) was 10 % IFA, the “SEVERITY OF RUST (% IFA) 5 DAT” value (Phakopsora pachyrhizi [1]; Table 2: 500 g ac/ha, soybean) was 0 % IFA and the “SEVERITY OF RUST (% IFA) 10 DAT” value (Phakopsora pachyrhizi [1]; Table 2: 500 g ac/ha, soybean) was 0 % IFA. For the same compound, the “SEVERITY OF RUST (% IFA) 15 DAT” value (Phakopsora pachyrhizi [1]; Table 2: 500 g ac/ha, soybean) was 2 % IFA, the “SEVERITY OF RUST (% IFA) 20 DAT” value (Phakopsora pachyrhizi [1]; Table 2: 500 g ac/ha, soybean) was 4 % IFA and the “effective in controlling soybean rust” value (Phakopsora pachyrhizi [1]; from 50 grams of active ingredient per hectare) was “effective in controlling soybean rust”. For the same compound, the “Severity … (%) 14 DAA” value (Phakopsora pachyrhizi [2]; Dose 500 P.C. mL ha^−1, 14 days after the first application) was 0.6%, the “Severity … (%) 21 DAA” value (Phakopsora pachyrhizi [2]; Dose 500 P.C. mL ha^−1, 21 days after the first application) was 4.0% and the “Severity … (%) 14 DAA” value (Phakopsora pachyrhizi [2]; Dose 750 P.C. mL ha^−1, 14 days after the first application) was 0.5%. The “Severity … (%) 21 DAA” value (Phakopsora pachyrhizi [2]; Dose 750 P.C. mL ha^−1, 21 days after the first application) was 2.0%, the “Severity … (%) 14 DAA” value (Phakopsora pachyrhizi [2]; [3]) was 0.4% and the “Severity … (%) 21 DAA” value (Phakopsora pachyrhizi [2]; [4]) was 1.5%.
